Measurements reported in the NIST ThermoML archive (doi:10.1016/j.fluid.2011.12.029).

Settings: Liquid, Vibrating tube method

CCC[n+]1ccccc1Oc1ccc(Cl)c[n+]1CCOS(=O)(=O)[O-].F[B-](F)(F)F
mass density [kg/m3]
Settings | 283.15 K | 288.15 K | 293.15 K | 298.15 K | 303.15 K | 308.15 K
100 kPa | 1264.92 | 1260.92 | 1257.14 | 1253.37 | 1249.77 | 1246.14
5000 kPa | 1266.85 | 1262.99 | 1259.28 | 1255.54 | 1252.02 | 1248.19
10000 kPa | 1269.01 | 1265.09 | 1261.4 | 1257.73 | 1254.17 | 1250.57
15000 kPa | 1270.98 | 1267.22 | 1263.43 | 1259.9 | 1256.38 | 1252.6
20000 kPa | 1273.05 | 1269.26 | 1265.5 | 1262.01 | 1258.37 | 1254.8
25000 kPa | 1274.97 | 1271.11 | 1267.47 | 1263.98 | 1260.46 | 1256.85
30000 kPa | 1276.87 | 1273.09 | 1269.5 | 1265.98 | 1262.48 | 1258.87
35000 kPa | 1278.73 | 1275.02 | 1271.32 | 1267.9 | 1264.47 | –
40000 kPa | 1280.58 | 1276.87 | 1273.23 | 1269.81 | 1266.35 | –
45000 kPa | 1282.38 | 1278.72 | 1275.01 | 1271.6 | 1268.13 | –
50000 kPa | 1284.12 | 1280.38 | 1276.8 | 1273.47 | 1269.94 | –
55000 kPa | 1285.76 | 1282.18 | 1278.62 | 1275.21 | 1271.81 | –
60000 kPa | 1287.38 | 1283.78 | 1280.22 | 1276.93 | 1273.55 | –
65000 kPa | 1289.03 | 1285.51 | 1281.96 | 1278.65 | 1275.21 | –
